{"source": "patent US4952565A", "about": "(priority 1986, dated 1990)", "key": {"[1]": {"assay": "Dissolution rates, Paddle Method, Apparatus 2 USP XXI, artificial gastric and intestinal juice", "assay_type": "physicochemical", "conditions": "37 °C, 100 rpm, equ. 400 mg", "experimental": "The dissolution tests were performed in 0.027N HCl and 0.06N HCl (artificial gastric juice) and in artificial intestinal juice, pH 6.0, at the temperature of 37° C. The volume of the artificial biological fluids was 1000 ml. The stirring rate of the paddle mixer was 100 rpm."}, "[2]": {"assay": "In vitro diffusion/resorption test, Stricker method, Sartorius model", "assay_type": "in vitro ADME", "conditions": "for Papp: not told, read-out: In vitro diffusion rate constant (kd) (converted)", "experimental": "The resorption tests were performed according to the Stricker method on a Sartorius Dissolution Model (Sartorius Dissolution Model, Instruction Manual, Sartorius Membranfilter, Gottingen 1972). The diffusion rates of ibuproxam through artificial lipid membranes at different pH values were determined. On the basis of the found diffusion rate constants (kd) the in vitro resorption rate constants (ka) were calculated."}, "[3]": {"assay": "Dissolution profiles/rates on Sartorius Dissolution Model SM 16751", "assay_type": "physicochemical", "experimental": "The quantities of the dissolved (MG) and of the resorbed (Mi) active ingredient were determined using a Sartorius Dissolution Model SM 16751 (Sartorius Dissolution Model, Instruction Manual, Sartorius Membranfilter, Gottingen 1972)."}, "[4]": {"assay": "In vitro ibuproxam release from pharmaceutical forms, Paddle Method USP XXI", "assay_type": "physicochemical", "conditions": "0.027 HCl, 37 °C, 100 rpm; ibuproxam and Ibudros 400 mg, complex equiv. to 200 mg; mean of 3"}}, "note": "Like-named read-outs stand apart in the source and are kept apart here."}
{"smiles": "CC(C)Cc1ccc(C(C)C(=O)NO)cc1", "note": "(stereo not shown) [ibuproxam, 2-(4-isobutylphenyl)-propiohydroxamic acid]", "values": [{"measurement": "% of dissolved ibuproxam", "setting": "[1]; 0.027 N HCl pH 1.6, 5 min", "value": 21.4, "unit": "%"}, {"measurement": "% of dissolved ibuproxam", "setting": "[1]; 0.027 N HCl pH 1.6, 15 min", "value": 28.1, "unit": "%"}, {"measurement": "% of dissolved ibuproxam", "setting": "[1]; 0.027 N HCl pH 1.6, 30 min", "value": 33.3, "unit": "%"}, {"measurement": "% of dissolved ibuproxam", "setting": "[1]; 0.027 N HCl pH 1.6, 45 min", "value": 37.4, "unit": "%"}, {"measurement": "% of dissolved ibuproxam", "setting": "[1]; 0.027 N HCl pH 1.6, 60 min", "value": 43.1, "unit": "%"}, {"measurement": "% of dissolved ibuproxam", "setting": "[1]; 0.06 N HCl pH 1.2, 5 min", "value": 21.8, "unit": "%"}, {"measurement": "% of dissolved ibuproxam", "setting": "[1]; 0.06 N HCl pH 1.2, 15 min", "value": 29.8, "unit": "%"}, {"measurement": "% of dissolved ibuproxam", "setting": "[1]; 0.06 N HCl pH 1.2, 30 min", "value": 37.4, "unit": "%"}, {"measurement": "% of dissolved ibuproxam", "setting": "[1]; 0.06 N HCl pH 1.2, 45 min", "value": 40.4, "unit": "%"}, {"measurement": "% of dissolved ibuproxam", "setting": "[1]; 0.06 N HCl pH 1.2, 60 min", "value": 41.7, "unit": "%"}, {"measurement": "% of dissolved ibuproxam", "setting": "[1]; artificial intestinal juice pH 6.0, 5 min", "value": 10.2, "unit": "%"}, {"measurement": "% of dissolved ibuproxam", "setting": "[1]; artificial intestinal juice pH 6.0, 15 min", "value": 21.2, "unit": "%"}, {"measurement": "% of dissolved ibuproxam", "setting": "[1]; artificial intestinal juice pH 6.0, 30 min", "value": 27.7, "unit": "%"}, {"measurement": "% of dissolved ibuproxam", "setting": "[1]; artificial intestinal juice pH 6.0, 45 min", "value": 32.7, "unit": "%"}, {"measurement": "% of dissolved ibuproxam", "setting": "[1]; artificial intestinal juice pH 6.0, 60 min", "value": 33.3, "unit": "%"}, {"measurement": "Papp", "setting": "[2]; pH 1.2, average of 4 tests", "value": 235, "unit": "×10⁻⁶ cm/s"}, {"measurement": "Papp", "setting": "[2]; pH 3.0, average of 4 tests", "value": 238, "unit": "×10⁻⁶ cm/s"}, {"measurement": "Papp", "setting": "[2]; pH 6.0, average of 4 tests", "value": 233, "unit": "×10⁻⁶ cm/s"}, {"measurement": "In vitro resorption rate constant (ka)", "setting": "[2]; pH 1.2, calculated from kd with G = 4.3", "value": 0.060, "unit": "min⁻¹"}, {"measurement": "In vitro resorption rate constant (ka)", "setting": "[2]; pH 6.0, calculated from kd with G = 10.0", "value": 0.138, "unit": "min⁻¹"}, {"measurement": "dissolution rate (kdiss)", "setting": "[3]", "value": 0.00017, "unit": "s⁻¹"}, {"measurement": "effect of pH of the biological fluids on dissolution rate, in words", "setting": "[3]", "value": "does not affect the dissolution rate"}, {"measurement": "% dissolved within 15 min", "setting": "[4]", "value": 35.8, "unit": "%"}, {"measurement": "% dissolved within 30 min", "setting": "[4]", "value": 43.4, "unit": "%"}, {"measurement": "% dissolved within 60 min", "setting": "[4]", "value": 54.5, "unit": "%"}]}
